Earlier results, collected in US20130028992A1, “Herbal-Based Solution for Treating Symptoms of Nasal Conditions” (priority 2011, published 2013).

Columns and labels:
[1] = system: 25 strains of yeast, bacteria and mold
platelet aggregation = conditions: case of a heart attack

Compound: C=CCN=C=S [allyl isothiocyanate]
- antimicrobial effect of vapor [1]: can combat 25 strains of yeast, bacteria and mold to varying degrees

Compound: CC(=O)Oc1ccccc1C(=O)O [aspirin]
- time required to take effect (platelet aggregation): thirty
